# Columns and labels:
# [1] = test system: human gastric adenocarcinoma cells (SGC7901); assay: Cytotoxicity, MTT assay, SGC7901; type: cell-based; conditions: for IC50: MTT, 24 h; for SGC7901 SI (selectivity index): quotient of IC50 towards LO2 cells
# Excerpt: (§1) Compounds 83–102 were screened against human neoplastic cell lines, such as human breast cancer cells (MCF-7), human colon cancer cells (HCT116), human lung carcinoma cells (A549), human gastric adenocarcinoma cells (SGC7901), human liver hepatocellular carcinoma cell line (HepG2), human cervical carcinoma cells (HeLa), human acute mononuclear granulocyte leukaemia (THP-1), and human normal hepatic cell line (LO2) using modified MTT assay. All the cells were obtained from the American Type Culture Collection (ATCC, Manassas, VA). The cells were cultured in DMEM or 1640. Positive controls (Doxorubicin (DOX) and Curcumin) and BAPs were initially dissolved in dimethyl sulphoxide (DMSO). Experimental concentration of DMSO was always 0.1% (v/v). The concentrations of BAPs and positive controls were 50, 20, 10, 5, 2.5, 1, 0.5, 0.1, 0.05, and 0.01 μg/mL.
# (§2) The cells (1 × 10^4 cells/well) were seeded in a 96-well plate and incubated for 24 h. Cells treated with serial concentrations of drugs were incubated for another 24 h. After the media removed, 20 μL of MTT (5 mg/mL) solution was added and incubated for 4 h at 37 °C. The MTT solution was removed and then 150 μL of DMSO was added. The optical density was measured with a multi-well plate reader (TECAN, Mӓnnedorf, Switzerland) at 570 nm. The results are expressed as a decrease in the cell viability (%) in comparison to untreated controls. The concentration of each compound was examined in triplicate, and the IC50 values are expressed in Table 1.
# [2] = test system: human normal hepatic cell line (LO2); assay: Toxicity to normal cells, MTT assay, LO2; type: cell-based; conditions: 24 h
# Excerpt: as §1, §2
# [3] = test system: human colon cancer cells (HCT116); assay: Cytotoxicity, MTT assay, HCT116; type: cell-based; conditions: for IC50: MTT, 24 h; for HCT116 SI (selectivity index): quotient of IC50 towards LO2 cells
# Excerpt: as §1, §2
# [4] = test system: TNF-α production in LPS-stimulated RAW264.7 cells; assay: TNF-α production in LPS-stimulated RAW264.7 cells, ELISA; type: cell-based
# Method: The anti-inflammatory activities of BAPs were evaluated by ELISA. After pretreated with 30 μM of positive drug pyrrolidinedithiocarbamate (PDTC) or 6 μM of BAPs for 2 h, cells were treated with LPS (1.0 μg/mL) for 22 h. The culture media were collected and centrifuged for detecting the expression levels of TNF-α by an ELISA kit (eBioScience, San Diego, CA).
# TNF-α is a common pro-inflammatory factors that can be produced by LPS-stimulated RAW264.7 macrophage[14]^,[24]. In order to evaluate the anti-inflammatory activity of BAPs, the effect of BAPs on TNF-α production in LPS-stimulated RAW264.7 cells was detected by ELISA. […] Only 92 presented slightly lower expression of TNF-α secretion (about 57%).
# [5] = test system: human cervical carcinoma cells (HeLa); assay: Cytotoxicity, MTT assay, HeLa; type: cell-based; conditions: for IC50: MTT, 24 h; for HeLa SI (selectivity index): quotient of IC50 towards LO2 cells
# Excerpt: as §1, §2
# [6] = test system: human acute mononuclear granulocyte leukaemia (THP-1); assay: Cytotoxicity, MTT assay, THP-1; type: cell-based; conditions: for IC50: MTT, 24 h; for THP-1 SI (selectivity index): quotient of IC50 towards LO2 cells
# Excerpt: as §1, §2
# [7] = test system: human liver hepatocellular carcinoma cell line (HepG2); assay: Cytotoxicity, MTT assay, HepG2; type: cell-based; conditions: for IC50: MTT, 24 h; for HepG2 SI (selectivity index): quotient of IC50 towards LO2 cells
# Excerpt: as §1, §2
# [8] = test system: human breast cancer cells (MCF-7); assay: Cytotoxicity, MTT assay, MCF-7; type: cell-based; conditions: for IC50: MTT, 24 h; for MCF-7 SI (selectivity index): quotient of IC50 towards LO2 cells
# Excerpt: as §1, §2
# [9] = test system: human lung carcinoma cells (A549); assay: Cytotoxicity, MTT assay, A549; type: cell-based; conditions: for IC50: MTT, 24 h; for A549 SI (selectivity index): quotient of IC50 towards LO2 cells
# Excerpt: as §1, §2
# [10] = test system: TNF-α expression in HepG2 xenografts; assay: Immunohistochemistry staining of TNF-α in HepG2 xenografts; type: in vivo, Balb/c nude mice; conditions: 96 5.0 mg/kg, DOX 1.0 mg/kg, versus model group
# Method: (§3) The HepG2 cells xenografts were established using the Balb/c nude mice (female, 7-week-old, 17–19 g, n = 30) (Shanghai Laboratory Animal Center, Shanghai Shi, China) were used to investigate the anti-hepatoma effect of 96. Animal experiments were reviewed and approved by the Binzhou Medical University Experimental Animal Committee. Briefly, HepG2 cells (1 × 10^7/0.2 ml PBS/mouse) were inoculated subcutaneously. Three days after the inoculation, the mice were randomly divided into five groups: the saline treated group (Control), 96 (0.2 mg/kg) group, 96 (1.0 mg/kg) treated group, 96 (5.0 mg/kg) treated group, and DOX (1.0 mg/kg) treated group. 96 were dissolved in saline containing 1% of DMSO and administered intraperitoneally every 2 d for 20 days. DOX was also administered intraperitoneally every 2 d for 20 d. The body weight and HepG2 xenografts volumes were recorded from the day of treatment, and xenografts volumes were calculated using the equation: tumour volume = length×(width)[2]×π/6. At the end of the experiment, mice were sacrificed and the xenografts were obtained for western blotting, HE staining and immunohistochemistry staining.
# (§4) The HepG2 xenografts tissues were embedded using the paraffin, and sectioned for HE staining and immunohistochemistry staining. HE staining was performed routinely. The immunohistochemistry staining carried out as following. […]
# [11] = test system: Bcl-2 expression in HepG2 xenografts; assay: Immunohistochemistry staining of Bcl-2 in HepG2 xenografts; type: in vivo, Balb/c nude mice; conditions: 96 5.0 mg/kg, DOX 1.0 mg/kg, versus model group
# Method: as §3, §4
# HepG2 xenografts [12] = assay: HE staining of HepG2 xenografts; type: in vivo, Balb/c nude mice
# Method: as §3
# The HepG2 xenografts tissues were embedded using the paraffin, and sectioned for HE staining and immunohistochemistry staining. HE staining was performed routinely. The immunohistochemistry staining carried out as following. Briefly, the processed sections were incubated with the primary antibodies: Bcl-2 and TNF-α (NOVUS BIOLOGICALS) at 4 °C overnight. After washing, the anti-rabbit peroxidase-conjugated secondary antibody (Sigma-Aldrich, St. Louis, MO) was incubated for 1 h at RT. After washing with PBS, the cells were visualized using the 3,3'-diaminobenzidine (DAB) solution under the light microscope. The cell images were taken using a light microscopy (Olympus, Tokyo, Japan).
# HepG2 xenografts [13] = assay: HepG2 xenografts growth in nude mice; type: in vivo, Balb/c nude mice; conditions: 1.0 mg/kg intraperitoneally every 2 d for 20 days
# Method: as §3
# [14] = BAPs 6.0 μM, PDTC 30 μM, LPS 1.0 μg/mL
smiles,measurement,setting,value
CN1CC(=Cc2cccc(N=Cc3cc([N+](=O)[O-])ccc3F)c2)C(=O)C(=Cc2ccccc2F)C1 [Compound 97],IC50,[1],3.4 ± 0.8 µM
same,SGC7901 SI (selectivity index),[1],3.5
same,IC50,[2],11.8 ± 0.4 µM
same,IC50,[3],11.7 ± 0.2 µM
same,HCT116 SI (selectivity index),[3],1.0
same,TNF-α secretion,[4]; [14],45%
same,IC50,[5],5.1 ± 1.2 µM
same,HeLa SI (selectivity index),[5],2.3
same,IC50,[6],8.1 ± 0.4 µM
same,THP-1 SI (selectivity index),[6],1.5
same,IC50,[7],4.2 ± 0.5 µM
same,HepG2 SI (selectivity index),[7],2.8
same,IC50,[8],10.7 ± 0.1 µM
same,MCF-7 SI (selectivity index),[8],1.1
same,IC50,[9],5.7 ± 0.4 µM
same,A549 SI (selectivity index),[9],2.1
CN1CC(=Cc2cccc(N=Cc3cc(F)ccc3O)c2)C(=O)C(=Cc2ccccc2F)C1 [Compound 93],IC50,[1],2.8 ± 0.5 µM
same,SGC7901 SI (selectivity index),[1],5.4
same,IC50,[2],15.1 ± 0.7 µM
same,IC50,[3],2.5 ± 1.8 µM
same,HCT116 SI (selectivity index),[3],6.0
same,Inhibition of TNF-α secretion compared with PDTC (in words),[4]; [14],superior to PDTC group
same,TNF-α secretion,[4]; [14],45%
same,IC50,[5],3 ± 0.1 µM
same,HeLa SI (selectivity index),[5],5.0
same,IC50,[6],2.4 ± 0.5 µM
same,THP-1 SI (selectivity index),[6],6.3
same,IC50,[7],2.2 ± 0.2 µM
same,HepG2 SI (selectivity index),[7],6.9
same,IC50,[8],3.8 ± 0.9 µM
same,MCF-7 SI (selectivity index),[8],4.0
same,IC50,[9],3.7 ± 0.1 µM
same,A549 SI (selectivity index),[9],4.1
CN1CC(=Cc2cccc(N=Cc3ccc(O)c(O)c3O)c2)C(=O)C(=Cc2ccccc2F)C1 [Compound 100],IC50,[1],3.6 ± 0.1 µM
same,SGC7901 SI (selectivity index),[1],5.5
same,IC50,[2],19.8 ± 0.3 µM
same,IC50,[3],11.9 ± 0.1 µM
same,HCT116 SI (selectivity index),[3],1.7
same,TNF-α secretion,[4]; [14],45%
same,IC50,[5],11.9 ± 0.2 µM
same,HeLa SI (selectivity index),[5],1.7
same,IC50,[6],7.7 ± 0.1 µM
same,THP-1 SI (selectivity index),[6],2.6
same,IC50,[7],8.8 ± 0.4 µM
same,HepG2 SI (selectivity index),[7],2.3
same,IC50,[8],7.7 ± 0.2 µM
same,MCF-7 SI (selectivity index),[8],2.6
same,IC50,[9],1.9 ± 0.2 µM
same,A549 SI (selectivity index),[9],10.4
"COc1cccc2c1C(=O)c1c(O)c3c(c(O)c1C2=O)C[C@@](O)(C(=O)CO)C[C@@H]3O[C@H]1C[C@H](N)[C@H](O)[C@H](C)O1 [DOX, Doxorubicin, reference compound]",IC50,"[1]; Homo sapiens, SGC-7901",3.3 ± 0.5 µM
same,SGC7901 SI (selectivity index),[1],1.4
same,IC50,[2]; Homo sapiens,4.7 ± 0.7 µM
same,IC50,"[3]; Homo sapiens, HCT-116",3.5 ± 0.1 µM
same,HCT116 SI (selectivity index),[3],1.3
same,"TNF-α expression, immunohistochemistry",[10],significantly reduced
same,"Bcl-2 expression, immunohistochemistry",[11],significantly reduced
same,IC50,"[5]; Homo sapiens, HeLa",7 ± 0.3 µM
same,HeLa SI (selectivity index),[5],0.7
same,IC50,"[6]; Homo sapiens, THP-1, 24 h",9.5 ± 0.8 µM
same,THP-1 SI (selectivity index),[6],0.5
same,"Fracted cells, HE staining","HepG2 xenografts [12]; 96 5.0 mg/kg, DOX 1.0 mg/kg",a plenty of fracted cells
same,"Histopathological change of cell nucleus, HE staining","HepG2 xenografts [12]; HepG2 xenografts, versus model group",made the HepG2 cell nucleus wrinkled
same,IC50,"[7]; Homo sapiens, HepG2, 24 h",1.2 ± 0.1 µM
same,HepG2 SI (selectivity index),[7],3.9
same,IC50,"[8]; Homo sapiens, MCF7",2.8 ± 0.7 µM
same,MCF-7 SI (selectivity index),[8],1.7
same,Growth of HepG2 xenografts,HepG2 xenografts [13],significantly inhibited the growth of HepG2 xenografts
same,IC50,"[9]; Homo sapiens, A549, 24 h",3.4 ± 0.4 µM
same,A549 SI (selectivity index),[9],1.4
"CN1C/C(=C\c2cccc(N)c2)C(=O)/C(=C/c2ccccc2F)C1 [Compound 92, (3E,5E)-3-(3-aminobenzylidene)-5-(2-fluorobenzylidene)-1-methylpiperidin-4-one]",IC50,"[1]; Homo sapiens, SGC-7901",2.8 ± 0.2 µM
same,SGC7901 SI (selectivity index),[1],6.8
same,IC50,[2]; Homo sapiens,18.9 ± 0.7 µM
same,IC50,"[3]; Homo sapiens, HCT-116",3.1 ± 0.3 µM
same,TNF-α secretion (percent of LPS control),"[4]; 6.0 μM, 2 h pretreatment, LPS 1.0 μg/mL 22 h, ELISA",about 57%
same,IC50,"[5]; Homo sapiens, HeLa",2.5 ± 0.2 µM
same,IC50,"[6]; Homo sapiens, THP-1, 24 h",1.2 ± 0.2 µM
same,IC50,"[7]; Homo sapiens, HepG2, 24 h",1.1 ± 0.1 µM
same,IC50,"[8]; Homo sapiens, MCF7",2.8 ± 0.3 µM
same,MCF-7 SI (selectivity index),[8],6.8
same,IC50,"[9]; Homo sapiens, A549, 24 h",2.2 ± 0.1 µM
same,A549 SI (selectivity index),[9],8.6
CN1CC(=Cc2cccc(N=Cc3cc(O)ccc3O)c2)C(=O)C(=Cc2ccccc2F)C1 [Compound 99],IC50,[1],4.7 ± 0.3 µM
same,SGC7901 SI (selectivity index),[1],3.3
same,IC50,[2],15.6 ± 0.4 µM
same,IC50,[3],7.42 ± 0.1 µM
same,HCT116 SI (selectivity index),[3],2.1
same,IC50,[5],15.3 ± 1.1 µM
same,HeLa SI (selectivity index),[5],1.0
same,IC50,[6],7.8 ± 0.4 µM
same,THP-1 SI (selectivity index),[6],2.0
same,IC50,[7],8.2 ± 0.1 µM
same,HepG2 SI (selectivity index),[7],1.9
same,IC50,[8],5.9 ± 0.2 µM
same,MCF-7 SI (selectivity index),[8],2.6
same,IC50,[9],4.4 ± 0.1 µM
same,A549 SI (selectivity index),[9],3.5
COc1ccc(/C=C2\CN(C)C/C(=C\c3ccc(Cl)c(Cl)c3)C2=O)cc1 [Compound 91],IC50,[1],6.4 ± 0.1 µM
same,SGC7901 SI (selectivity index),[1],2.2
same,IC50,[2],14.2 ± 0.3 µM
same,IC50,[3],18.1 ± 0.2 µM
same,HCT116 SI (selectivity index),[3],0.8
same,IC50,[5],17 ± 1.3 µM
same,HeLa SI (selectivity index),[5],0.8
same,IC50,[6],7.2 ± 0.2 µM
same,THP-1 SI (selectivity index),[6],2.0
same,IC50,[7],4.5 ± 0.7 µM
same,HepG2 SI (selectivity index),[7],3.2
same,IC50,[8],12.5 ± 0.5 µM
same,MCF-7 SI (selectivity index),[8],1.1
same,IC50,[9],9.2 ± 0.1 µM
same,A549 SI (selectivity index),[9],1.5

# — paper PMC6691761, “Potential multifunctional agents with anti-hepatoma and anti-inflammation properties by inhibiting NF-кB activation” (Journal of Enzyme Inhibition and Medicinal Chemistry, 2019)
